For 24 compounds, melting point results are on record in US20050154042A1, “N-alkyl pyrroles as HMG-CoA reductase inhibitors” (priority 2003, published 2005).

Broadly, the melting point is the temperature, or range, at which the solid turns liquid.

Where a name gives a salt, the structure may show the parent alone.

Compound `CC(C)n1c(CC[C@@H](O)C[C@@H](O)CC(=O)[O-])c(-c2ccc(F)cc2)c(-c2ccccc2)c1C(=O)Nc1cccc(S(N)(=O)=O)c1.[Na+]` [Example 125, (3R,5R)-7-[3-(4-Fluoro-phenyl)-1-isopropyl-4-phenyl-5-(3-sulfamoyl-phenylcarbamoyl)-1H-pyrrol-2-yl]-3,5-dihydroxy-heptanoic Acid Sodium Salt] gave a melting point of 227 to 229 °C. The compound `CC(N)=CC(=O)CNC(=O)c1c(-c2ccccc2)c(-c2ccc(F)cc2)c(CC[C@@H](O)C[C@@H](O)CC(=O)[O-])n1C(C)C.[Na+]` [Example 113, (3R,5R)-7-[5-(4-Amino-2-oxo-pent-3-enylcarbamoyl)-3-(4-fluoro-phenyl)-1-isopropyl-4-phenyl-1H-pyrrol-2-yl]-3,5-dihydroxy-heptanoic Acid, Sodium Salt] yielded a melting point of 189 to 193 °C.

Turning to `CC(C)n1c(/C=C/[C@@H](O)C[C@@H](O)CC(=O)[O-])c(-c2ccc(F)cc2)c(-c2ccc(F)cc2)c1C(=O)Nc1ccccc1OCc1ccccc1.[Na+]` [Example 131, (3R,5S)-7-[5-(2-Benzyloxy-phenylcarbamoyl)-3,4-bis-(4-fluoro-phenyl)-1-isopropyl-1H-pyrrol-2-yl]-3,5-dihydroxy-hept-6-enoic Acid Sodium Salt], the melting point lay in the range of 228 to 229 °C. Under `CC(C)n1c(/C=C/[C@@H](O)C[C@@H](O)CC(=O)[O-])c(-c2ccc(F)cc2)c(-c2ccccc2)c1C(=O)NCc1ccc(C#N)cc1.[Na+]` [Example 145, (3R,5S)-7-[5-(4-Cyano-benzylcarbamoyl)-3-(4-fluoro-phenyl)-1-isopropyl-4-phenyl-1H-pyrrol-2-yl]-3,5-dihydroxy-hept-6-enoic Acid Sodium Salt] stands 193 to 195 °C; under `CC(C)n1c(CC[C@@H](O)C[C@@H](O)CC(=O)O)c(-c2ccc(F)cc2)c(-c2ccc(F)cc2)c1C(=O)Nc1ccc(S(N)(=O)=O)cc1` (as salt: sodium) [Example 11, (3R,5R)-7-[3,4-Bis-(4-fluoro-phenyl)-1-isopropyl-5-(4-sulfamoyl-phenylcarbamoyl)-1H-pyrrol-2-yl]-3,5-dihydroxy-heptanoic Acid Sodium Salt], 261 to 263 °C; under `CC(C)n1c(CC[C@@H](O)C[C@@H](O)CC(=O)[O-])c(-c2ccc(F)cc2)c(-c2ccccc2)c1C(=O)NCc1ccc(C(=O)[O-])cc1.[Na+].[Na+]` [Example 164, (3R,5R)-4-({[5-(6-Carboxy-3,5-dihydroxy-hexyl)-4-(4-fluoro-phenyl)-1-isopropyl-3-phenyl-1H-pyrrole-2-carbonyl]-amino}-methyl)-benzoic Acid Disodium Salt], 255 to 260 °C. To `CC(C)n1c(CC[C@@H](O)C[C@@H](O)CC(=O)[O-])c(-c2ccc(F)cc2)c(-c2ccccc2)c1C(=O)Nc1cccc(C(=O)N(C)C)c1.[Na+]` [Example 108, (3R,5R)-7-[5-(3-Dimethylcarbamoyl-phenylcarbamoyl)-3-(4-fluoro-phenyl)-1-isopropyl-4-phenyl-1H-pyrrol-2-yl]-3,5-dihydroxy-heptanoic Acid, Sodium Salt] belongs 156 to 205 °C; to `CNC(=O)c1c(-c2ccccc2)c(-c2ccc(F)cc2)c(CC[C@@H](O)C[C@@H](O)CC(=O)[O-])n1C(C)C.[Na+]` [Example 156, (3R,5R)-7-[3-(4-Fluoro-phenyl)-1-isopropyl-5-methylcarbamoyl-4-phenyl-1H-pyrrol-2-yl]-3,5-dihydroxy-heptanoic Acid Sodium Salt], 238 to 240 °C. Consider `CCc1cccc(NC(=O)c2c(-c3ccc(F)cc3)c(-c3ccc(F)cc3)c(/C=C/[C@@H](O)C[C@@H](O)CC(=O)[O-])n2C(C)C)c1.[Na+]` [Example 141, (3R,5S)-7-[5-(3-Ethyl-phenylcarbamoyl)-3,4-bis-(4-fluoro-phenyl)-1-isopropyl-1H-pyrrol-2-yl]-3,5-dihydroxy-hept-6-enoic Acid Sodium Salt], for which the melting point was in the range of 229 to 230 °C. `CC(C)n1c(CC[C@@H](O)C[C@@H](O)CC(=O)[O-])c(-c2ccc(F)cc2)c(-c2ccccc2)c1C(=O)Nc1ccccn1.[Na+]` [Example 119, (3R,5R)-7-[3-(4-Fluoro-phenyl)-1-isopropyl-4-phenyl-5-(pyridin-2-ylcarbamoyl)-1 H-pyrrol-2-yl]-3,5-dihydroxy-heptanoic Acid Sodium Salt]: the melting point was 226 to 228 °C (dec.).

Regarding `CC(C)n1c(CC[C@@H](O)C[C@@H](O)CC(=O)[O-])c(-c2ccc(F)cc2)c(-c2ccccc2)c1C(N)=O.[Na+]` [Example 161, (3R,5R)-7-[5-Carbamoyl-3-(4-fluoro-phenyl)-1-isopropyl-4-phenyl-1H-pyrrol-2-yl]-3,5-dihydroxy-heptanoic Acid Sodium Salt], the melting point was 212 to 214 °C. `CC(C)n1c(CC[C@@H](O)C[C@@H](O)CC(=O)[O-])c(-c2ccc(F)cc2)c(-c2ccc(F)cc2)c1C(=O)Nc1ccc(C(=O)N(C)C)cc1.[Na+]` [Example 85, (3R,5R)-7-[5-(4-dimethylcarbamoyl-phenylcarbamoyl)-3,4-bis-(4-fluoro-phenyl)-1-isopropyl-1H-pyrrol-yl]-3,5-dihydroxy-heptanoate Sodium Salt] had a melting point of 220 to 223 °C. Under `CC(C)n1c(CC[C@@H](O)C[C@@H](O)CC(=O)O)c(-c2ccc(F)cc2)c(-c2ccc(F)cc2)c1C(=O)Nc1ccc(CC(N)=O)cc1` (as salt: sodium) [Example 13] stands 248 to 250 °C; under `COc1cccc(NC(=O)c2c(-c3ccc(F)cc3)c(-c3ccc(F)cc3)c(CC[C@@H](O)C[C@@H](O)CC(=O)[O-])n2C(C)C)c1.[Na+]` [Example 136, (3R,5R)-7-[3,4-Bis-(4-fluoro-phenyl)-1-isopropyl-5-(3-methoxy-phenylcarbamoyl)-1H-pyrrol-2-yl]-3,5-dihydroxy-heptanoic Acid Sodium Salt], 215 to 217 °C.

Compound `CCc1cccc(NC(=O)c2c(-c3ccc(F)cc3)c(-c3ccc(F)cc3)c(CC[C@@H](O)C[C@@H](O)CC(=O)[O-])n2C(C)C)c1.[Na+]` [Example 140, (3R,5R)-7-[5-(3-Ethyl-phenylcarbamoyl)-3,4-bis-(4-fluoro-phenyl)-1-isopropyl-1H-pyrrol-2-yl]-3,5-dihydroxy-heptanoic Acid Sodium Salt] yielded a melting point of 175 to 177 °C. Consider `CC(C)OC(=O)c1ccc(CNC(=O)c2c(-c3ccccc3)c(-c3ccc(F)cc3)c(CC[C@@H](O)C[C@@H](O)CC(=O)[O-])n2C(C)C)cc1.[Na+]` [Example 148, (3R,5R)-7-[3-(4-Fluoro-phenyl)-5-(4-isopropoxycarbonyl-benzylcarbamoyl)-1-isopropyl-4-phenyl-1H-pyrrol-2-yl]-3,5-dihydroxy-heptanoic Acid Sodium Salt], for which the melting point is 199 to 201 °C. On to `CC(C)n1c(CC[C@@H](O)C[C@@H](O)CC(=O)[O-])c(-c2ccc(F)cc2)c(-c2ccc(F)cc2)c1C(=O)Nc1ccccc1O.[Na+]` [Example 134, (3R,5R)-7-[3,4-Bis-(4-fluoro-phenyl)-5-(2-hydroxy-phenylcarbamoyl)-1-isopropyl-1H-pyrrol-2-yl]-3,5-dihydroxy-heptanoic Acid Sodium Salt], for which the melting point is 222 to 223 °C. Regarding `CC(C)n1c(CC[C@@H](O)C[C@@H](O)CC(=O)[O-])c(-c2ccc(F)cc2)c(-c2ccc(F)cc2)c1C(=O)Nc1cccc(Cl)c1.[Na+]` [Example 138, (3R,5R)-7-[5-(3-Chloro-phenylcarbamoyl)-3,4-bis-(4-fluoro-phenyl)-1-isopropyl-1H-pyrrol-2-yl]-3,5-dihydroxy-heptanoic Acid Sodium Salt], the melting point is 191 to 194 °C. Regarding `COC(=O)c1ccc(NC(=O)c2c(-c3ccccc3)c(-c3ccc(F)cc3)c(CC[C@@H](O)C[C@@H](O)CC(=O)[O-])n2C(C)C)cc1.[Na+]` [Example 116, (3R,5R)-4-{[5-(6-Carboxy-3,5-dihydroxy-hexyl)-4-(4-fluoro-phenyl)-1-isopropyl-3-phenyl-1H-pyrrole-2-carbonyl]-amino}-benzoic Acid Methyl Ester Sodium Salt], the melting point is 188 to 191 °C (dec.). Under `CC(C)n1c(CC[C@@H](O)C[C@@H](O)CC(=O)[O-])c(-c2ccc(F)cc2)c(-c2ccccc2)c1C(=O)NCc1cccc(C#N)c1.[Na+]` [Example 146, (3R,5R)-7-[5-(3-Cyano-benzylcarbamoyl)-3-(4-fluoro-phenyl)-1-isopropyl-4-phenyl-1H-pyrrol-2-yl]-3,5-dihydroxy-heptanoic Acid Sodium Salt] stands 180 to 182 °C; under `CC(C)n1c(CC[C@@H](O)C[C@@H](O)CC(=O)O)c(-c2ccc(F)cc2)c(-c2ccccc2)c1C(=O)NCc1cn2c(n1)CCCC2` (as salt: sodium) [Example 93, (3R,5R)-7-[3-(4-Fluorophenyl)-1-isopropyl-5-[(5,6,7,8-tetrahydro-imidazo[1,2-a]pyridin-2-yl Methyl)carbamoyl]-4-phenyl-1H-pyrrol-2-yl]-3,5-dihydroxyheptanoic Acid Sodium Salt], 239 to 241 °C (dec.). `CNC(=O)c1c(-c2ccccc2)c(-c2ccc(F)cc2)c(/C=C/[C@@H](O)C[C@@H](O)CC(=O)[O-])n1C(C)C.[Na+]` [Example 157, (3R,5S)-7-[3-(4-Fluoro-phenyl)-1-isopropyl-5-methylcarbamoyl-4-phenyl-1H-pyrrol-2-yl]-3,5-dihydroxy-hept-6-enoic Acid Sodium Salt]: the melting point fell in the range of 224 to 226 °C. As to `COC(=O)c1ccc(NC(=O)c2c(-c3ccccc3)c(-c3ccc(F)cc3)c(CC[C@@H](O)C[C@@H](O)CC(=O)[O-])n2C(C)C)nc1.[Na+]` [Example 118, (3R,5R)-6-{[5-(6-Carboxy-3,5-dihydroxy-hexyl)-4-(4-fluoro-phenyl)-1-isopropyl-3-phenyl-1H-pyrrole-2-carbonyl]-amino}-nicotinic Acid Methyl Ester Sodium Salt], the melting point was 188 to 190 °C (dec.). In turn, `CC(C)n1c(CC[C@@H](O)C[C@@H](O)CC(=O)[O-])c(-c2ccc(F)cc2)c(-c2ccccc2)c1C(=O)NCc1ccccc1.[Na+]` [Example 114, (3R,5R)-7-[5-Benzylcarbamoyl-3-(4-fluoro-phenyl)-1-isopropyl-4-phenyl-1H-pyrrol-2-yl]-3,5-dihydroxy-heptanoic Acid Sodium Salt] gave a melting point of 186 to 189 °C.
